Results taken from PubChem BioAssay (NCI).
Several values for one entry are separate records, joined by “and”; a condition that tells them apart may be missing. Equal entries are not always repeated.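 Method: 48-hour compound exposure of cells in 96-well plates, five concentrations, linear interpolation of endpoints. Abbreviation: GI50, concentration required for 50% inhibition of growth. TGI: concentration producing complete growth inhibition.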

Experiments:
Test in all cases: NCI tumour cell line growth inhibition, 48 h
DU-145 prostate = test system: DU-145 prostate
BT-549 breast = test system: BT-549 breast
NCI/ADR-RES ovarian = test system: NCI/ADR-RES ovarian
M19-MEL melanoma = test system: M19-MEL melanoma
DLD-1 colon = test system: DLD-1 colon
KM20L2 colon = test system: KM20L2 colon
DMS 114 small cell lung = test system: DMS 114 small cell lung
LXFL 529 NSCLC = test system: LXFL 529 NSCLC
DMS 273 small cell lung = test system: DMS 273 small cell lung
XF 498 CNS = test system: XF 498 CNS

| Compound | GI50 (DU-145 prostate) | TGI (DU-145 prostate) | GI50 (BT-549 breast) | TGI (BT-549 breast) | GI50 (NCI/ADR-RES ovarian) [µM] | TGI (NCI/ADR-RES ovarian) | also measured |
| --- | --- | --- | --- | --- | --- | --- | --- |
| O=C(Cc1ccc(Nc2ccnc(C(F)(F)F)c2)cc1)N/N=C/c1ccccc1O | 3.17 µM | > 58.1 µM | 2.43 µM | > 39.2 µM | 2.83 | 33 µM |  |
| O=C1C(=C([O-])c2ccccc2)C(=O)c2ccccc21.O=C1C(=C([O-])c2ccccc2)C(=O)c2ccccc21.[Co+2] |  |  |  |  |  |  | GI50 (M19-MEL melanoma): > 100 µM; TGI (M19-MEL melanoma): > 100 µM; GI50 (DLD-1 colon): > 100 µM; TGI (DLD-1 colon): > 100 µM; GI50 (KM20L2 colon): > 100 µM; TGI (KM20L2 colon): > 100 µM |
| NC(=N\N=C/c1ccc(Cl)cc1Cl)/C(N)=N\N=C/c1ccc(Cl)cc1Cl | > 100 µM | > 100 µM | 45.3 µM | > 93.2 µM | 38.7 | > 100 µM |  |
| O=C(O)c1cn(C2CC2)c2cc(N3CCN(C(=O)Nc4nc(-c5ccc(Br)cc5)cs4)CC3)c(F)cc2c1=O | 2.05 µM | > 100 µM |  |  | > 100 | > 100 µM |  |
| CN(CSc1ccc(Cl)cc1)c1ccc(CSc2ccc(Cl)cc2)cc1 | 6.69 µM | 25.3 µM | 1.16 µM | 3.6 µM | 8 | 30.1 µM |  |
| O=C1c2cccnc2C(=O)c2c1c(C(=O)OCCc1ccccn1)c1ccccn21 | 0.0296 µM | 1.22 µM | 0.0671 µM | 2.11 µM | 0.0252 | 1.15 µM |  |
| CCN1C(=O)N(CC)C2C1NC(=S)N2/N=C/C=C/c1ccccc1OC (stereo unspecified) |  |  | 0.0258 µM | 38.2 µM | 0.0311 | > 100 µM |  |
| N#Cc1c2ccccc2c2nnc3ccccc3n12 | 26.8 µM | > 100 µM | 12 µM | 45.1 µM |  |  |  |
| COc1ncc(-c2ccc3nccc(C#CCN4CCN(S(C)(=O)=O)CC4)c3c2)cc1NS(=O)(=O)c1ccc(F)cc1F | 0.108 µM | 12.6 µM | 0.039 µM | 0.874 µM | 0.465 | 12.4 µM |  |
| N#C/C(=C\c1ccc(F)cc1)n1nc2cccc(F)c2n1 | 3.2 µM | > 100 µM | 4.72 µM | > 100 µM | 2.99 | 14.8 µM |  |
| O=C(NS(=O)(=O)c1ccc(NC[C@H]2COCCO2)c([N+](=O)[O-])c1)c1ccc(N2CCN(CC3=C(c4ccc(Cl)cc4)CC4(CCC4)CC3)CC2)cc1Oc1cnc2[nH]ccc2c1 | 3.57 µM | 70.6 µM | 2.42 µM | 5.39 µM | 4.88 | 24.9 µM |  |
| NC(=O)CCc1ccccc1Oc1nccc(-c2c(-c3ccc(F)cc3)ncn2C2CCNCC2)n1 | > 25 µM | > 25 µM | > 25 µM | > 25 µM | > 25 | > 25 µM |  |
| CCN(CC)CC(O)COc1c(Br)c(Br)c(Br)c2c1OC(C)(C)C2 (stereo unspecified) | 5.43 µM | 18.1 µM | 4.5 µM | 17.6 µM | 7.69 | 25.5 µM |  |
| CCCCN(CC)CCCCCCCCCCN1CCCc2cc(OC)ccc21 | 6.48 µM | 53 µM | 3.63 µM | 12.5 µM | 2.07 | 6.15 µM |  |
| CC(C)OCc1cc(CN2CCN(c3cccc(Cl)c3)CC2)c(O)c2ncccc12 | 0.876 µM | 14.7 µM | 3.26 µM | 19.8 µM | 0.203 | 10.6 µM |  |
| O=C(c1cccs1)c1nc2cc(Cl)ccc2[n+]([O-])c1C(F)(F)F | > 100 µM | > 100 µM | > 100 µM | > 100 µM | > 100 | > 100 µM |  |
| COc1ccc(/C=C/C(=O)c2ccc(Nc3nc(Nc4ccc(F)cc4)nc(Nc4ccc(Cl)cc4)n3)cc2)cc1 | > 100 µM | > 100 µM | > 100 µM | > 100 µM | > 100 | > 100 µM |  |
| CCC(C)(C)[C@H](NC(=O)[C@H]1CCCCN1C)C(=O)N(C)[C@H](C[C@@H](OC(C)=O)c1nc(C(=O)N[C@@H](Cc2ccccc2)C[C@H](C)C(=O)O)cs1)C(C)C | < 0.00167 µM |  | < 0.00167 µM | 0.0136 µM | 0.00342 | > 16.7 µM |  |
| Cn1c(NCC(CN2CCCC2)OC(=O)c2ccccc2)cc(=O)n(C)c1=O (stereo unspecified) | > 100 µM | > 100 µM | > 100 µM | > 100 µM | > 100 | > 100 µM |  |
| C/C(=N/NC(=S)N1CC2CCC(CC2)C1)c1cnccn1 |  | 13.8 µM |  | 16.7 µM |  | 0.054 µM |  |
| C=C1C(=O)OC2CC1C(OC(C)=O)C/C(C)=C/CC/C(C)=C\CCC2(C)O (stereo unspecified) |  | 14.6 µM and 23.1 µM | 4.31 µM and 2.05 µM | 15.5 µM and 5.35 µM |  | 15.4 µM and 17.4 µM |  |
| COc1cc2c3c(n(CCCN4CCCNCC4)c(=O)c2cc1OC)-c1cc2c(cc1C3=O)OCO2 | 0.166 µM | 2.02 µM | 2.2 µM | 11.5 µM | 0.493 | 6.69 µM |  |
| COc1ccc2[nH]c3c4c(cc(-c5ccccc5)c3c2c1)C(=O)N(c1ccccc1)C4=O |  |  |  |  |  |  | TGI (DMS 114 small cell lung): > 100 µM; TGI (LXFL 529 NSCLC): 64.3 µM; TGI (M19-MEL melanoma): > 100 µM; TGI (DLD-1 colon): > 100 µM; TGI (KM20L2 colon): > 100 µM; TGI (DMS 273 small cell lung): 36.8 µM |
| C/C(=N\O)c1cccc(Nc2cc(-c3ccccc3)nc3c(O)cccc23)c1 | 2.96 µM | 16.6 µM | 11.8 µM | 52.3 µM | 1.37 | > 23.5 µM |  |
| C=C(COC(C)=O)CC(/C=C(\C)CC/C=C(\C)CO)OC(C)=O (stereo unspecified) |  |  |  |  |  |  | TGI (XF 498 CNS): > 100 µM; TGI (LXFL 529 NSCLC): > 100 µM; TGI (M19-MEL melanoma): > 100 µM; TGI (DLD-1 colon): > 100 µM; TGI (KM20L2 colon): > 100 µM; TGI (DMS 273 small cell lung): > 100 µM |
| O=C(/C=C/c1cccc(S(=O)(=O)Nc2ccccc2)c1)NO | 0.444 µM and 0.111 µM | 17.8 µM | 3.53 µM and 2.16 µM | 44.5 µM and 71.9 µM |  | 6.51 µM |  |
| C#CCn1c(=O)c2cccnc2n(CC#C)c1=O |  |  |  |  |  |  | TGI (XF 498 CNS): > 100 µM; TGI (LXFL 529 NSCLC): > 100 µM; TGI (DLD-1 colon): > 100 µM; TGI (DMS 273 small cell lung): > 100 µM |
| COc1ccccc1NC(=O)C(=O)Cc1cnc2ccccc2n1 |  | > 100 µM |  | > 100 µM |  | > 100 µM |  |
| C=C(CN1CCN(c2ccccc2C(F)(F)F)CC1)c1ccc(C(=O)Nc2ccccc2N)cc1 | 7.51 µM | > 49.5 µM | 2.67 µM | 14 µM | 2.01 | 10.5 µM |  |
